Laboratory results: US20050267182A1, “Urea derivatives as FLT-3 modulators” (Ambit Biosciences Corporation, priority 2003, published 2005)

Legend:
MV4,11 cells = assay: FLT3 assay using MV4,11 cells (cellular proliferation, MTS); assay type: cell-based, human; conditions: cell assay code CS0001
Protocol: The ability of FLT3 kinase inhibitors to inhibit cellular proliferation was also examined. MV4:11 was a cell line derived from a patient with acute myelogenous leukemia.
FLT3 Assay Using MV4,11 Cells
MV4,11 cells were grown in an incubator @ 37° C. in 5% CO2 in Medium 2 (RPMI, 10% FBS, 4 mM glutamine, Penn/Strep). The cells were counted daily and the cell density was kept between 1e5 and 8e5 cells/ml.
Day One: Enough cells were harvested for experiments to be conducted in 50 ml conical tubes. The harvested cells were spun at 500 g for 5 min at 4° C., the supernatant was then aspirated and the cells were resuspended in the starting volume of 1×PBS. The cells were again spun at 500 g for 5 min at 4° C. and the supernatant again aspirated. The cells were then resuspended in medium 3 (DMEM w/ glut, 10% FBS, Penn/Strep) to a density of 4e5 cells/ml and incubated (37° C. in 5% CO2 O/N.
Day Two: The cells were counted and enough medium 3 was added to decrease density to 2e5 cells/ml. 50 ul (10,000 cells) was aliquoted into each well of a 96 well optical plate using multichannel pipetman. The compound plate was then set up by aliquoting 3 μl of negative control (DMSO) into column 1 of a 96 well 300 ul polypropylene plate, aliquoting 3 μt of positive control (10 mM AB20121) into column 12 of plate, and aliquoting 3 μl of appropriate compounds from serial dilutions into columns 2-11. To each well, 150 μl of Medium 3 was added and 50 μl of compound/medium mixture from compound plate into rows of optical plate in duplicate. The cells were then incubated @ 37° C. in 5% CO2 for 3 days.
Day Five: MTS was thawed in a H2O bath. 20 μl of MTS was added to each well of optical plate and the cells were incubated (37° C. in 5% CO2 for 2 hours. The plate was then placed on a plate shaker for 30 seconds on high speed.

FLT3 = biological target: T1, FLT3 (Homo sapiens, UniProt P36888); assay: Binding constant (Kd) measurement, phage-displayed kinase competition binding assay; conditions: for Binding Assay: FLT3(DKIN): FLT3(DKIN) construct; for Binding Assay: FLT3(JMminus): FLT3(JMminus) construct
T1 construct: FLT3(DKIN); made in house
T1 sequence (P36888 610-943 limits assumed): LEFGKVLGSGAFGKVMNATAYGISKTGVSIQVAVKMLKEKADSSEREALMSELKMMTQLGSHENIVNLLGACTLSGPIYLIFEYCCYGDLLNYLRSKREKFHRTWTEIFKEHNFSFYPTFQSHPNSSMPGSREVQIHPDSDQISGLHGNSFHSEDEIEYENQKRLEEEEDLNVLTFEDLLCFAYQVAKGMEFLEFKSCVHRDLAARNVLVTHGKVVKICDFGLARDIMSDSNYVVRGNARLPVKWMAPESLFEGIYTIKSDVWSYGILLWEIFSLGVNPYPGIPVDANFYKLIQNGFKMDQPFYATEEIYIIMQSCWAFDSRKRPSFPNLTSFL
From the text: Binding Constant (Kd) Measurements for Small-Molecule-Kinase Interactions
The term “ND” represents non-determined values.

CC(C)(C)c1cc(NC(=O)Nc2ccc(NC(=O)c3cc4cccnc4nc3C(F)(F)F)cc2)no1 [Compound N61]
Cell Assay: CS0001:IC50 (MV4,11 cells): + + + | Binding Assay: FLT3(DKIN) (FLT3): + + +

COc1cc(NC(=O)c2cn3nc(Cl)ccc3n2)ccc1NC(=O)Nc1cc(C(C)(C)C)on1 [Compound N171]
Cell Assay: CS0001:IC50 (MV4,11 cells): + + + | Binding Assay: FLT3(JMminus) (FLT3): + +

COc1cc(OC)nc(Oc2ccccc2C(=O)Nc2ccc(NC(=O)Nc3cc(C(C)(C)C)on3)cc2)n1 [Compound N70]
Cell Assay: CS0001:IC50 (MV4,11 cells): + + | Binding Assay: FLT3(JMminus) (FLT3): + + +

COc1cccc(-c2ccc(C(=O)Nc3ccc(NC(=O)Nc4cc(C(C)(C)C)on4)cc3)o2)c1 [Compound N105]
Cell Assay: CS0001:IC50 (MV4,11 cells): + + + | Binding Assay: FLT3(DKIN) (FLT3): + + + +

CC(C)(C)c1cc(NC(=O)Nc2ccc(NC(=O)c3nn(-c4cccc(C(F)(F)F)c4)c(=O)cc3O)cc2)no1 [Compound N185]
Cell Assay: CS0001:IC50 (MV4,11 cells): + + | Binding Assay: FLT3(JMminus) (FLT3): + + +

CC(C)(C)c1cc(NC(=O)Nc2ccc(NC(=O)Cc3sc(-c4ccc(Cl)cc4)nc3-c3ccccc3)cc2)no1 [Compound N66]
Cell Assay: CS0001:IC50 (MV4,11 cells): + + + | Binding Assay: FLT3(DKIN) (FLT3): + + + +

Cn1cc(C(=O)Nc2ccc(NC(=O)Nc3cc(C(C)(C)C)on3)cc2)c(C(F)(F)F)n1 [Compound N20]
Cell Assay: CS0001:IC50 (MV4,11 cells): + + + | Binding Assay: FLT3(DKIN) (FLT3): + + + +

C=CCOc1ccc(NC(=O)Nc2cc(C(C)(C)C)no2)cc1 [Compound G32]
Cell Assay: CS0001:IC50 (MV4,11 cells): + + + + | Binding Assay: FLT3(DKIN) (FLT3): + + + +

CC(C)(C)c1cc(NC(=O)Nc2ccc(NC(=O)C(N)Cc3ccccc3F)cc2)no1 (centres unmarked) [Compound N42]
Cell Assay: CS0001:IC50 (MV4,11 cells): + + | Binding Assay: FLT3(DKIN) (FLT3): + + +

CC(C)(C)c1cc(NC(=O)Nc2ccc(NC(=O)c3cnc4cc(C(F)(F)F)ccc4c3O)cc2)no1 [Compound N146]
Cell Assay: CS0001:IC50 (MV4,11 cells): + + + | Binding Assay: FLT3(DKIN) (FLT3): + + +

CC(C)(C)c1cc(NC(=O)Nc2ccc(OCCc3ccccn3)cc2)no1 [Compound G27]
Cell Assay: CS0001:IC50 (MV4,11 cells): + + + | Binding Assay: FLT3(DKIN) (FLT3): + + + +

O=C(c1cc2ccccc2[nH]1)c1cc2cc(O)ccc2[nH]1
Cell Assay: CS0001:IC50 (MV4,11 cells): + + + | Binding Assay: FLT3(DKIN) (FLT3): + + + +

CC(C)(C)c1cc(NC(=O)Nc2ccc(OCc3ccccc3-c3ccccc3)cc2)no1 [Compound G8]
Cell Assay: CS0001:IC50 (MV4,11 cells): + + | Binding Assay: FLT3(DKIN) (FLT3): + + +

CC(C)(C)c1cc(NC(=O)Nc2ccc(NC(=O)c3cc(Cl)nc(Cl)c3)cc2)no1 [Compound N132]
Cell Assay: CS0001:IC50 (MV4,11 cells): + + + | Binding Assay: FLT3(DKIN) (FLT3): + + +

CC(C)(C)c1cc(NC(=O)Nc2ccc(OCCN3CCC(O)CC3)cc2)no1 [Compound G48]
Cell Assay: CS0001:IC50 (MV4,11 cells): + + | Binding Assay: FLT3(DKIN) (FLT3): + + +

CC(C)(C)c1cc(NC(=O)Nc2ccc(C(=O)Nc3ccccc3)cc2)no1 [Compound N90]
Cell Assay: CS0001:IC50 (MV4,11 cells): + + + | Binding Assay: FLT3(DKIN) (FLT3): + + + +

CC(C)(C)c1cc(NC(=O)Nc2ccc(NC(=O)c3nnsc3Sc3ccc(C(F)(F)F)cc3)cc2)no1 [Compound N179]
Cell Assay: CS0001:IC50 (MV4,11 cells): + + + | Binding Assay: FLT3(JMminus) (FLT3): + + +

CC(C)(C)c1cc(NC(=O)Nc2ccc(OCc3c(F)cccc3F)cc2)no1 [Compound G21]
Cell Assay: CS0001:IC50 (MV4,11 cells): + + + + | Binding Assay: FLT3(DKIN) (FLT3): + + + +

COc1cc(NC(=O)CCC(=O)N2CCNC(=O)CC2)ccc1NC(=O)Nc1cc(C(C)(C)C)on1 [Compound N172]
Cell Assay: CS0001:IC50 (MV4,11 cells): + + | Binding Assay: FLT3(JMminus) (FLT3): + + +

CC(C)(C)c1cc(NC(=O)Nc2ccc(OCc3ccc(C(F)(F)F)cc3)cc2)no1 [Compound G6]
Cell Assay: CS0001:IC50 (MV4,11 cells): + + + | Binding Assay: FLT3(DKIN) (FLT3): + + + +

CC(C)(C)c1cc(NC(=O)Nc2ccc(NC(=O)c3cc(Cl)cc(Cl)c3)cc2)no1 [Compound N29]
Cell Assay: CS0001:IC50 (MV4,11 cells): + + + | Binding Assay: FLT3(DKIN) (FLT3): + + +

CC(C)(C)c1cc(NC(=O)Nc2ccc(NC(=O)c3c4ccccc4nc4ccccc34)cc2)no1 [Compound N148]
Cell Assay: CS0001:IC50 (MV4,11 cells): + + | Binding Assay: FLT3(DKIN) (FLT3): + + +

Cc1nccn1CCOc1ccc(NC(=O)Nc2cc(C(C)(C)C)on2)cc1 [Compound G51]
Cell Assay: CS0001:IC50 (MV4,11 cells): + + + | Binding Assay: FLT3(DKIN) (FLT3): + + + +

Cc1ccc(NC(=O)c2ccc(NC(=O)Nc3cc(C(C)(C)C)on3)cc2)cc1 [Compound N84]
Cell Assay: CS0001:IC50 (MV4,11 cells): + + + + | Binding Assay: FLT3(DKIN) (FLT3): + + + +

CC(C)(C)c1cc(NC(=O)Nc2ccc(OCCN3CCOCC3)cc2)no1 [Compound G40]
Cell Assay: CS0001:IC50 (MV4,11 cells): + + | Binding Assay: FLT3(DKIN) (FLT3): + + +

Cc1nnsc1C(=O)Nc1ccc(NC(=O)Nc2cc(C(C)(C)C)on2)cc1 [Compound N18]
Cell Assay: CS0001:IC50 (MV4,11 cells): + + | Binding Assay: FLT3(DKIN) (FLT3): + + +

COc1nc(C)cc(C)c1C(=O)Nc1ccc(NC(=O)Nc2cc(C(C)(C)C)on2)cc1 [Compound N22]
Cell Assay: CS0001:IC50 (MV4,11 cells): + + + | Binding Assay: FLT3(DKIN) (FLT3): + + + +

CCOc1ccc(NC(=O)Nc2cc(C(C)(C)C)on2)cc1 [Compound G20]
Cell Assay: CS0001:IC50 (MV4,11 cells): + + + + | Binding Assay: FLT3(DKIN) (FLT3): + + + +

CC(C)(C)c1cc(NC(=O)Nc2ccc(NC(=O)c3ccc(-n4cc(-c5ccncn5)cn4)cc3)cc2)no1 [Compound N76]
Cell Assay: CS0001:IC50 (MV4,11 cells): + + + | Binding Assay: FLT3(JMminus) (FLT3): + + +

CC(C)(C)c1cc(NC(=O)Nc2ccc(NC(=O)c3ccccc3O)cc2)no1 [Compound N69]
Cell Assay: CS0001:IC50 (MV4,11 cells): + + + | Binding Assay: FLT3(JMminus) (FLT3): + +

CC(C)(C)c1cc(NC(=O)Nc2ccc(NC(=O)c3cccc(SC(F)F)c3)cc2)no1 [Compound N25]
Cell Assay: CS0001:IC50 (MV4,11 cells): + + + | Binding Assay: FLT3(DKIN) (FLT3): + + + +

CC(C)(C)c1cc(NC(=O)Nc2ccc(NC(=O)c3csc(Cc4cccc(C(F)(F)F)c4)n3)cc2)no1 [Compound N180]
Cell Assay: CS0001:IC50 (MV4,11 cells): + + + | Binding Assay: FLT3(JMminus) (FLT3): + + + +

CC(C)(C)c1cc(NC(=O)Nc2ccc(NC(=O)c3cnc4ccccc4n3)cc2)no1 [Compound N149]
Cell Assay: CS0001:IC50 (MV4,11 cells): + + | Binding Assay: FLT3(DKIN) (FLT3): + + +

CC(C)(C)c1cc(NC(=O)Nc2ccc(OCc3ccc4nonc4c3)cc2)no1 [Compound G55]
Cell Assay: CS0001:IC50 (MV4,11 cells): + + + | Binding Assay: FLT3(DKIN) (FLT3): + + + +

CC(C)(C)c1cc(NC(=O)Nc2ccc(NC(=O)Cc3ccccc3)cc2)no1 [Compound N35]
Cell Assay: CS0001:IC50 (MV4,11 cells): + + | Binding Assay: FLT3(DKIN) (FLT3): + + +

CC(C)(C)c1cc(NC(=O)Nc2ccc(NC(=O)c3c(F)cccc3F)cc2)no1 [Compound N37]
Cell Assay: CS0001:IC50 (MV4,11 cells): + + | Binding Assay: FLT3(DKIN) (FLT3): + + +

CC(C)(C)c1cc(NC(=O)Nc2ccc(NC(=O)c3ccc(SC(F)(F)F)cc3)cc2)no1 [Compound N33]
IC50 (MV4,11 cells; Homo sapiens, MV4-11): > 10 µM | Binding Assay: FLT3(DKIN) (FLT3): + + +

CC(C)(C)c1cc(NC(=O)Nc2ccc(OCc3ccc(OC(F)(F)F)cc3)cc2)no1 [Compound G5]
Cell Assay: CS0001:IC50 (MV4,11 cells): + + + | Binding Assay: FLT3(DKIN) (FLT3): + + + +

COc1ccc(NC(=O)Nc2cc(C(F)(F)F)cc(Cl)n2)cc1 [Compound Z71]
Cell Assay: CS0001:IC50 (MV4,11 cells): + + + | Binding Assay: FLT3(DKIN) (FLT3): + + + +

Cc1cc(NC(=O)c2cn3nc(Cl)ccc3n2)ccc1NC(=O)Nc1cc(C(C)(C)C)on1 [Compound N169]
Cell Assay: CS0001:IC50 (MV4,11 cells): + + + | Binding Assay: FLT3(JMminus) (FLT3): + + +
